Results taken from paper PMC8416565 (Oncotarget, 2021).

Molecular target: T1, MAP2K7 (Homo sapiens, UniProt O14733)
T1 construct: purified human MAP2K7 (Origene)
T1 sequence (O14733 2-419): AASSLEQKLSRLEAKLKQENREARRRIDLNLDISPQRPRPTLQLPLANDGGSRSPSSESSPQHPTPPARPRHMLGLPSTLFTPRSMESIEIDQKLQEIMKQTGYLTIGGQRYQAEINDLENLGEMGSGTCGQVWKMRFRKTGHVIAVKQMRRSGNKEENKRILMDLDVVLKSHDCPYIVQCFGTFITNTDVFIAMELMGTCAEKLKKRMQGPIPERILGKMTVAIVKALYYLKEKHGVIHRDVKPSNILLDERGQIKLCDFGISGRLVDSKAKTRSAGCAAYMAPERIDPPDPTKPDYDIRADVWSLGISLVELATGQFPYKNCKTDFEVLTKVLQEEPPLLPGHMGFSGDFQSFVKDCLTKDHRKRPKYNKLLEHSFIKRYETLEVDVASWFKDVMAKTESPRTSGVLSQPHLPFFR
Experiment: in vitro kinase assay (Kinase-Glo Plus / ADP-Glo), dead JNK2 substrate, 30-min preincubation
Assay type: biochemical

IC50: 1.2 µM
Compound: COc1cc(O)c2c(c1)/C=C/C[C@H](O)[C@H](O)C(=O)/C=C\C[C@H](C)OC2=O [5Z7O, 5Z-7-oxozeaenol]
